Laboratory results from ChEMBL document CHEMBL3259525, “Plasmepsin inhibitory activity and structure-guided optimization of a potent hydroxyethylamine-based antimalarial hit” (ACS Med Chem Lett, 2014).

Tests used:
[1] = biological target: Cathepsin D (Homo sapiens, UniProt P07339); assay: Inhibition of human cathepsin-D using DABCYL-Glu-Arg-Nle-Phe-Leu-Ser-Phe-Pro-EDANS as substrate preincubated for 30 mins by FRET assay
[2] = biological target: Plasmepsin II (Plasmodium falciparum, UniProt P46925); assay: Inhibition of Plasmodium falciparum plasmepsin-2 using DABCYL-Glu-Arg-Nle-Phe-Leu-Ser-Phe-Pro-EDANS as substrate preincubated for 30 mins by FRET assay
Sequence of Plasmepsin II (P46925 whole entry): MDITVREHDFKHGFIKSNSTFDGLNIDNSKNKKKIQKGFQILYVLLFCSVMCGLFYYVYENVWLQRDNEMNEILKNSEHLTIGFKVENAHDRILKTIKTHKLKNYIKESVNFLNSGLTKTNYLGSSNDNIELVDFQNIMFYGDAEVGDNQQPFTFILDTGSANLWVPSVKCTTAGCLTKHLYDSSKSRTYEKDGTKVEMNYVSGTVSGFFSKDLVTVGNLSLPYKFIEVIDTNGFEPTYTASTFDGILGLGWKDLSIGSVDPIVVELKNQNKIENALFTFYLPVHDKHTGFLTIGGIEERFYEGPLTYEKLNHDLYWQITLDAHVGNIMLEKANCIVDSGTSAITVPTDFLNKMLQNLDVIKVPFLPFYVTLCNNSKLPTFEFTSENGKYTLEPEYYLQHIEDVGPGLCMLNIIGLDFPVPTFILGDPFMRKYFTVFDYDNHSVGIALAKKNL

[3] = Inhibition of Plasmodium falciparum plasmepsin-4 using DABCYL-Glu-Arg-Nle-Phe-Leu-Ser-Phe-Pro-EDANS as substrate preincubated for 30 mins by FRET assay
[4] = biological target: Plasmepsin I (Plasmodium falciparum, UniProt P39898); assay: Inhibition of Plasmodium falciparum plasmepsin-1 using DABCYL-Glu-Arg-Nle-Phe-Leu-Ser-Phe-Pro-EDANS as substrate preincubated for 30 mins by FRET assay
Sequence of Plasmepsin I (P39898 whole entry): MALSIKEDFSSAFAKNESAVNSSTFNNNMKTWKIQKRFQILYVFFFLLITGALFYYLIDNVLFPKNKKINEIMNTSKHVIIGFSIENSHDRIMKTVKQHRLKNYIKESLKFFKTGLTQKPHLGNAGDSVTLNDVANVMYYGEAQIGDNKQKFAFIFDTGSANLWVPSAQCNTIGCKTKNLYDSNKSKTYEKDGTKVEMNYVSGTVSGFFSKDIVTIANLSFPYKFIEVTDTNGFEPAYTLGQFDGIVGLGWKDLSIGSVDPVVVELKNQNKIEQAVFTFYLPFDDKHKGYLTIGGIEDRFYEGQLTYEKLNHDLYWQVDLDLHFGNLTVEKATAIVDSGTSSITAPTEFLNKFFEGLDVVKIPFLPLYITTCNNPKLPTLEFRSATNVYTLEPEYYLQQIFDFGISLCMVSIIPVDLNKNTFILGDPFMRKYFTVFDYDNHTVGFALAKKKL

[5] = system: Plasmodium falciparum; assay: Antimalarial activity against blood-stage Plasmodium falciparum 3D7 assessed as inhibition of parasite growth after 96 hrs by SYBR Green I assay; format: functional, organism-based; conditions: 3D7, 96 h
[6] = system: Plasmodium falciparum; assay: Antimalarial activity against intra erythrocytic Plasmodium falciparum assessed as inhibition of parasite growth; format: functional, organism-based

Sequence of Cathepsin D (P07339 65-162 limits assumed): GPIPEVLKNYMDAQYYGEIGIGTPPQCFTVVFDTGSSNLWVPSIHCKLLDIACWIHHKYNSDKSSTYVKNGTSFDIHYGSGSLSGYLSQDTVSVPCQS
Sequence of Cathepsin D (P07339 169-412 limits assumed): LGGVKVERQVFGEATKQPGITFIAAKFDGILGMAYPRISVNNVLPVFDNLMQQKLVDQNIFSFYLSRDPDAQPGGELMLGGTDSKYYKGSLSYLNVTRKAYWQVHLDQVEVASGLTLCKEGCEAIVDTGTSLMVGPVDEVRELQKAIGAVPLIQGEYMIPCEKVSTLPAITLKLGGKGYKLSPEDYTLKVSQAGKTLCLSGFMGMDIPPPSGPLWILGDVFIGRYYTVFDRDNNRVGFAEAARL

Structure (SMILES)	IC50 [1] [nM]	IC50 [2] [nM]	IC50 [3] [nM]	IC50 [4] [nM]	IC50 [5] [nM]	IC50 [6] [nM]
CCCN(CCC)C(=O)c1cc(C(=O)N[C@@H](Cc2ccccc2)[C@H](O)CNC2(c3cccc(OC)c3)CC2)cc(N2CCCCC2)c1	100	150	25	330		
CCCN(CCC)C(=O)c1cc(C(=O)N[C@@H](Cc2ccccc2)[C@H](O)CNC(C)(C)c2cccc(O)c2)cc(N2CCCCC2)c1	40	100	19	360		
CCCN(CCC)C(=O)c1cc(C(=O)N[C@@H](Cc2ccccc2)[C@H](O)CNCc2cccc(OC)c2)cc(N2CCCCS2(=O)=O)c1	360	2700	200	18000		
CCCN(CCC)C(=O)c1cc(C(=O)N[C@@H](Cc2ccccc2)[C@@H](O)CNC(C)(C)c2cccc(OC)c2)cc(N2CCCCS2(=O)=O)c1	4400	14000	470	18000	200	
CCCN(CCC)C(=O)c1cc(C(=O)N[C@@H](Cc2ccccc2)[C@@H](O)CNC(C)(C)c2ccccc2)cc(N2CCCCS2(=O)=O)c1	5800	24000	720	45000		
COc1cccc(C(C)(C)NC[C@@H](O)[C@H](Cc2ccccc2)NC(=O)c2cc(C(=O)N3CCCC3)cc(N3CCCCC3)c2)c1	38	500	110	1600		
CCCN(CCC)C(=O)c1cc(C(=O)N[C@@H](Cc2ccccc2)[C@H](O)CNC(C)(C)c2cccc(OC)c2)cc(N2CCCCS2(=O)=O)c1	43	150	29	700	2	30
CCCN(CCC)C(=O)c1cc(C(=O)N[C@@H](Cc2ccccc2)[C@H](O)CNCc2cccc(OC)c2)cc(N2CCCCC2)c1	200	600	180	6100		
COc1cccc(C(C)(C)NC[C@@H](O)[C@H](Cc2ccccc2)NC(=O)c2cc(C(N)=O)cc(N3CCCCC3)c2)c1	500	4400	170	7600		
CCCN(CCC)C(=O)c1cc(C(=O)N[C@@H](Cc2ccccc2)[C@H](O)CNC(C)(C)c2ccncc2)cc(N2CCCCC2)c1	170	270	90	470		
CCCN(CCC)C(=O)c1cc(C(=O)N[C@@H](Cc2ccccc2)[C@H](O)CNC(C)(C)c2ccccc2)cc(N2CCCCC2)c1	51	110	23	380		
CCCN(CCC)C(=O)c1cc(C(=O)N[C@@H](Cc2ccccc2)[C@H](O)CNC(C)(C)c2cccnc2)cc(N2CCCCC2)c1	140	190	64	350		
CCCNC(=O)c1cc(C(=O)N[C@@H](Cc2ccccc2)[C@H](O)CNC(C)(C)c2cccc(OC)c2)cc(N2CCCCC2)c1	110	500	38	750		
CCCN(CCC)C(=O)c1cc(C(=O)N[C@@H](Cc2ccccc2)[C@H](O)CNC(C)(C)c2cccc(OC)c2)cc(C2CCCCC2)c1	19	36	25	200		

Continued, in another order:

IC50 [1] [nM]	IC50 [2] [nM]	IC50 [3] [nM]	IC50 [4] [nM]	Structure (SMILES)	IC50 [5] [nM]	IC50 [6] [nM]
120	320	48	2300	CCCN(CCC)C(=O)c1cc(C(=O)N[C@@H](Cc2ccccc2)[C@H](O)CNC(C)(C)c2ccccc2)cc(N2CCCCS2(=O)=O)c1		
54	72	6	250	CCCN(CCC)C(=O)c1cc(C(=O)N[C@@H](Cc2ccccc2)[C@H](O)CNC(C)(C)c2cccc(OC)c2)cc(-c2ccccc2)c1	2	
32	120	7	430	CCCN(CCC)C(=O)c1cc(C(=O)N[C@@H](Cc2ccccc2)[C@H](O)CNC(C)(C)c2cccc(OC)c2)cc(N2CCCC2)c1	4	
350	800	250	4100	CCCN(CCC)C(=O)c1cc(C(=O)N[C@@H](Cc2ccccc2)[C@H](O)CNC(C)(C)c2ccccn2)cc(N2CCCCC2)c1		
42	70	24	300	CCCN(CCC)C(=O)c1cc(C(=O)N[C@@H](Cc2ccccc2)[C@H](O)CNC(C)(C)c2cccc(OC)c2)cc(N2CCCCC2)c1	6	
68	190	23	600	CCCN(CCC)C(=O)c1cc(C(=O)N[C@@H](Cc2ccccc2)[C@H](O)CNC(C)(C)c2cncc(OC)c2)cc(N2CCCCC2)c1		
